Test results: PubChem BioAssay (NCI)
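How tested: cells in 96-well plates exposed to compound for 48 hours at five concentrations. Here, GI50 denotes the concentration required for 50% inhibition of growth. TGI marks complete inhibition of growth.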

How the values were obtained:
Test in all cases: DTP human tumour cell line panel, 48 h
[1] = system: 786-0 renal
[2] = system: A549 NSCLC
[3] = system: ACHN renal
[4] = system: BT-549 breast
[5] = system: CAKI-1 renal
[6] = system: CCRF-CEM leukemia
[7] = system: COLO 205 colon
[8] = system: DU-145 prostate
[9] = system: EKVX NSCLC
[10] = system: HCC-2998 colon
[11] = system: HCT-116 colon
[12] = system: HCT-15 colon
[13] = system: HL-60(TB) leukemia
[14] = system: HOP-62 NSCLC
[15] = system: HOP-92 NSCLC
[16] = system: HS 578T breast
[17] = system: HT29 colon
[18] = system: IGROV1 ovarian
[19] = system: K-562 leukemia
[20] = system: LOX IMVI melanoma
[21] = system: M14 melanoma
[22] = system: MALME-3M melanoma
[23] = system: MCF7 breast
[24] = system: MDA-MB-231 breast
[25] = system: MDA-MB-435
[26] = system: MOLT-4 leukemia
[27] = system: NCI-H226 lung
[28] = system: NCI-H23 lung
[29] = system: NCI-H460 lung
[30] = system: NCI-H522 lung
[31] = system: NCI/ADR-RES ovarian
[32] = system: OVCAR-3 ovarian
[33] = system: OVCAR-4 ovarian
[34] = system: OVCAR-5 ovarian
[35] = system: OVCAR-8 ovarian
[36] = system: PC-3 prostate
[37] = system: RPMI-8226 leukemia
[38] = system: RXF 393 renal
[39] = system: SF-268 CNS
[40] = system: SF-295 CNS
[41] = system: SF-539 CNS
[42] = system: SK-MEL-2 melanoma
[43] = system: SK-MEL-28 melanoma
[44] = system: SK-MEL-5 melanoma
[45] = system: SK-OV-3 ovarian
[46] = system: SN12C renal
[47] = system: SNB-19 CNS
[48] = system: SNB-75 CNS
[49] = system: SR leukemia
[50] = system: SW-620 colon
[51] = system: T-47D breast
[52] = system: TK-10 renal
[53] = system: UACC-257 melanoma
[54] = system: UO-31 renal
[55] = system: A498 renal
[56] = system: KM12 colon
[57] = system: U251 CNS
[58] = system: UACC-62 melanoma

## CC(=O)N1C(Nc2ccccc2)CCN1c1ccccc1 (stereo not drawn)
[1]
  TGI: > 10 µM
[2]
  TGI: > 10 µM
[3]
  TGI: > 10 µM
[4]
  TGI: > 10 µM
[5]
  TGI: > 10 µM
[6]
  TGI: > 10 µM
[7]
  TGI: > 10 µM
[8]
  TGI: > 10 µM
[9]
  TGI: > 10 µM
[10]
  TGI: > 10 µM
[11]
  TGI: > 10 µM
[12]
  TGI: > 10 µM
[13]
  TGI: > 10 µM
[14]
  TGI: > 10 µM
[15]
  TGI: > 10 µM
[16]
  TGI: > 10 µM
[17]
  TGI: > 10 µM
[18]
  TGI: > 10 µM
[19]
  TGI: > 10 µM
[20]
  TGI: > 10 µM
[21]
  TGI: > 10 µM
[22]
  TGI: > 10 µM
[23]
  TGI: > 10 µM
[24]
  TGI: > 10 µM
[25]
  TGI: > 10 µM
[26]
  TGI: > 10 µM
[27]
  TGI: > 10 µM
[28]
  TGI: > 10 µM
[29]
  TGI: > 10 µM
[30]
  TGI: > 10 µM
[31]
  TGI: > 10 µM
[32]
  TGI: > 10 µM
[33]
  TGI: > 10 µM
[34]
  TGI: > 10 µM
[35]
  TGI: > 10 µM
[36]
  TGI: > 10 µM
[37]
  TGI: > 10 µM
[38]
  TGI: > 10 µM
[39]
  TGI: > 10 µM
[40]
  TGI: > 10 µM
[41]
  TGI: > 10 µM
[42]
  TGI: > 10 µM
[43]
  TGI: > 10 µM
[44]
  TGI: > 10 µM
[45]
  TGI: > 10 µM
[46]
  TGI: > 10 µM
[47]
  TGI: > 10 µM
[48]
  TGI: > 10 µM
[49]
  TGI: > 10 µM
[50]
  TGI: > 10 µM
[51]
  TGI: > 10 µM
[52]
  TGI: > 10 µM
[53]
  TGI: > 10 µM
[54]
  TGI: > 10 µM

## O=C1/C(=C\c2ccc(Cl)cc2)CCOc2c1ccc1ccccc21
[1]
  GI50: 24 µM
  TGI: 55.7 µM
[55]
  GI50: 36.4 µM
  TGI: 61.8 µM
[2]
  GI50: 42.8 µM
  TGI: > 100 µM
[3]
  GI50: 20.4 µM
  TGI: 42.9 µM
[4]
  GI50: 18.8 µM
  TGI: 47 µM
[5]
  GI50: 31.7 µM
  TGI: 66 µM
[6]
  GI50: 28.8 µM
  TGI: > 100 µM
[7]
  GI50: 22 µM
  TGI: 50.1 µM
[8]
  GI50: 19.7 µM
  TGI: 61.7 µM
[9]
  GI50: 16.7 µM
  TGI: 47.6 µM
[11]
  GI50: 35 µM
  TGI: > 100 µM
[12]
  GI50: 14.9 µM
  TGI: 62.4 µM
[13]
  GI50: 46.4 µM
  TGI: > 100 µM
[14]
  GI50: 25.8 µM
  TGI: 63.6 µM
[15]
  GI50: 17.8 µM
  TGI: 63.4 µM
[16]
  GI50: 46.5 µM
  TGI: > 100 µM
[17]
  GI50: 22.6 µM
  TGI: 72 µM
[18]
  GI50: 55.3 µM
  TGI: > 100 µM
[19]
  GI50: 22.5 µM
  TGI: > 100 µM
[56]
  GI50: 31.8 µM
  TGI: > 100 µM
[20]
  GI50: 18.6 µM
  TGI: 42.3 µM
[21]
  GI50: 36.3 µM
  TGI: > 100 µM
[22]
  GI50: 25.9 µM
  TGI: 57.9 µM
[23]
  GI50: 19.4 µM
  TGI: > 100 µM
[24]
  GI50: 18.6 µM
  TGI: 57 µM
[25]
  GI50: 23.2 µM
  TGI: > 100 µM
[26]
  GI50: 11.7 µM
  TGI: > 100 µM
[27]
  GI50: 11.2 µM
  TGI: 27.1 µM
[28]
  GI50: 21.6 µM
  TGI: 56.7 µM
[29]
  GI50: 21.4 µM
  TGI: 76.4 µM
[30]
  GI50: 30.1 µM
  TGI: > 100 µM
[31]
  GI50: 19.6 µM
  TGI: 62.8 µM
[32]
  GI50: 39.4 µM
  TGI: 87.6 µM
[33]
  GI50: 36.7 µM
  TGI: > 100 µM
[34]
  GI50: 26.1 µM
  TGI: 78.8 µM
[35]
  GI50: 28.1 µM
  TGI: > 100 µM
[36]
  GI50: 43.5 µM
  TGI: > 100 µM
[37]
  GI50: 14 µM
  TGI: 55.5 µM
[38]
  GI50: 22.4 µM
  TGI: 63.6 µM
[39]
  GI50: 24.2 µM
  TGI: 83.9 µM
[40]
  GI50: 33.5 µM
  TGI: > 100 µM
[41]
  GI50: 12.2 µM
  TGI: 29.9 µM
[42]
  GI50: 87.5 µM
  TGI: > 100 µM
[43]
  GI50: 19 µM
  TGI: 38.2 µM
[44]
  GI50: 20.6 µM
  TGI: 45.8 µM
[45]
  GI50: 42.6 µM
  TGI: > 100 µM
[46]
  GI50: 18.5 µM
  TGI: 49.6 µM
[47]
  GI50: 23.9 µM
  TGI: 72.3 µM
[48]
  GI50: 34.6 µM
  TGI: > 100 µM
[49]
  GI50: 11.9 µM
  TGI: > 100 µM
[50]
  GI50: 38.5 µM
  TGI: > 100 µM
[51]
  GI50: 19 µM
  TGI: 42.2 µM
[52]
  GI50: 27.6 µM
  TGI: 72.3 µM
[57]
  GI50: 20.3 µM
  TGI: 58.6 µM
[53]
  GI50: 29.8 µM
  TGI: 83.3 µM
[58]
  GI50: 18.7 µM
  TGI: 47 µM
[54]
  GI50: 35.4 µM
  TGI: > 100 µM
